≈ marks a conversion by molar mass, not a printed value.
Legend:
[1] = biological target: T1, human C5a receptor (CD88) (Homo sapiens, UniProt P21730); assay: C5a induced enzyme (glucosaminidase) release assay in RBL cells expressing the human C5a receptor (Example 28); assay type: cell-based; conditions: inhibition of C5a induced enzyme release, RBL cells with human C5aR; read-out: Activity-range (antagonistic activity, IC50 enzyme release)
T1 construct: expressed in transfected cells; host or cells: rat basophilic leukemia (RBL) cells, stably transfected
T1 sequence (P21730 1-350): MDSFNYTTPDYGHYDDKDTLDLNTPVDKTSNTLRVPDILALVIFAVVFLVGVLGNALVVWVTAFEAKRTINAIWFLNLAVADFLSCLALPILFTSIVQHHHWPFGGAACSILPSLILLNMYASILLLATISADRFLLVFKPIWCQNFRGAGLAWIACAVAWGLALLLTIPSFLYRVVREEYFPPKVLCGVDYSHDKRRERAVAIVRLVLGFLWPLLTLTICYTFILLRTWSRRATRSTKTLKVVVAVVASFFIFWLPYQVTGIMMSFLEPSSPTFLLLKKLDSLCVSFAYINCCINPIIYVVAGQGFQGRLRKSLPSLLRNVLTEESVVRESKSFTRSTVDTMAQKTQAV
Method in brief: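 Rat basophilic leukemia (RBL) cells expressing human C5a receptor, at 2×10^6 cells/ml, primed with cytochalasin B, then incubated with test compound 10 min at 37 °C.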

[2] = biological target: T1, human C5a receptor (CD88); assay: Agonism in enzyme release assay without C5a stimulus (Example 32); assay type: cell-based; conditions: concentration applied 7.1 μM
Description: The assay has been described by Köhl (Köhl 1997 The Anaphylatoxins. In: Dodds, A. W., Sim, R. B. (Eds.), Complement: A Practical Approach. Oxford: 135). Basophile leukemia cells from rats (RBL), which express the human C5a receptor (CD88), are cultivated in DMEM with 10% fetal calf serum, 100 U/ml penicillin, 100 μg/ml streptomycin and 2 mM glutamin (all constituents are from Biochrome, Berlin) at 37° C. and with 10% CO2 until a confluent layer is obtained. All following details refer to a tissue culture flask with 75 cm^2 surface. The used up medium is removed. The cells are washed with 10 ml PBS (Dulbecco's PBS, Biochrome) and then covered with 3 ml cell dissociation solution (CDS, Sigma). The cells are incubated for 1 minute at room temperature. Then the CDS is removed and the cells are incubated for further 10-15 minutes at 37° C. to detach the cells completely from the flask. 20 μl solution of the compound to be testet are used in the assay. The assay solution must not contain more than 2.8% DMSO. The dilution series are prepared in ⅓ or ½ steps. To the 20 μl of the compound solutions 75 μl RBL cells are added which are prepared as follows: After the detachment of the cells from the flask surface they are taken up with 10 ml HAG-CM (20 mM HEPES; 125 mM NaCl, 5 mM KCl, 1 mM CaCl2, 1 mM MgCl2, 0.5 mM glucose, 0.25% BSA. HEPES preparation: 2.3 g/l HEPES salt+2.66 g/l HEPES acid) thermostated at 37° C. The cells are counted and centrifuged (200 g, 10 min). The cell pellet is taken up with pre-heated HAG-CM, and the cell density is adjusted to 2×10^6 Zellen/ml. The cells are incubated for 5 minutes at 37° C. 2.7 μl of a cytochalasin B solution (1000 μg/ml in DMSO, Sigma) are added per ml cell suspension. The Zellen are incubated for another 3 min at 37° C. Then, 75 μl of the cell suspension are added to the 20 μl solution containing the compounds to be tested. Thus a volume of […] per well is obtained. The cells are again incubated for 10 minutes at 37° C. Then 10 μl hrC5a (10.5 nM in HAG-CM, Sigma) are added per well, which is followed by 5 minutes incubation at 37° C. After this the plates are put on ice and centrifuged for 3 minutes at 1200×g and 4° C. 75 μl of the supernatant are added to 100 μl substrate solution (2.7 mg/ml p-nitrophenyl-N-acetyl-b-D-glucosaminide (Sigma) in 42.5 mM sodium acetate, pH 4.5). The plate is incubated for 1 hour at 37° C. Per well 75 μl 0.4 M glycine (pH 10.4) are added. After this the plate can be measured at a wave length of 405 nm. The IC50 value is determined by solving the four parameter equation y=((A−D)/(1+(x/C)^B))+D.
The only difference is the fact that 30 μl of the substance to be tested are mixed with 75 μl of the cell suspension described in example 28. The cells are not pre-incubated and no C5a is added to stimulate enzyme release.

[3] = Solubility in aqueous HEPES buffer by HPLC (Example 33); assay type: physicochemical; conditions: kinetic from dmso stock
Description: To determine the solubility the compound to be measured is dissolved (e.g, […] of a 5 mM solution in DMSO) in organic solvent (e.g. 198 μl DMSO) as well as in aqueous buffer solution (e.g. 198 μl HEPES buffer). Both solutions are analyzed via analytical HPLC and the areas under the peaks are compared. The value for the organic solution is taken as 100%.

In the case of `CCc1c(N)cc(Cl)c(CC)c1NC(=O)N(Cc1ccc(Cl)cc1)c1ccc(CC(F)(F)F)cc1` [compound 103, 3-(3-amino-5-chloro-2,6-diethyl-phenyl)-1-(4-chloro-benzyl)-1-[4-(2,2,2-trifluoro-ethyl)-phenyl]-urea], the IC50 [1] is reported as 60 to 200 nM, the “Agonism (% of the maximum enzyme release induced by C5a)” value [2] is reported as 0.00% and the solubility [3] is reported as 7 µM (≈ 3.67 µg/mL).
With `CCc1ccc(N(C(=O)Nc2c(CC)c(N)cc(Cl)c2CC)C(C)c2ccc3c(c2)ncn3C)cc1` (stereo not drawn) [compound 122, 3-(3-amino-5-chloro-2,6-diethyl-phenyl)-1-(4-ethyl-phenyl)-1-[1-(1-methyl-1H-benzoimidazol-5-yl)-ethyl]-urea] the IC50 [1] was 60 to 200 nM, the “Agonism (% of the maximum enzyme release induced by C5a)” value [2] was 0.00% and the solubility [3] was 29 µM (≈ 14.6 µg/mL).
For `CCc1ccc(N(Cc2ccc(C)nc2)C(=O)Nc2c(CC)c(N)cc(Cl)c2CC)cc1` [compound 106, 3-(3-amino-5-chloro-2,6-diethyl-phenyl)-1-(4-ethyl-phenyl)-1-(6-methyl-pyridin-3-ylmethyl)-urea], the IC50 [1] was 60 to 200 nM, the “Agonism (% of the maximum enzyme release induced by C5a)” value [2] was 0.00% and the solubility [3] was 83 µM (≈ 37.4 µg/mL).

From patent US8071810B2, “C5a receptor antagonists” (Jerini AG, priority 2005, dated 2011)
